Data from ChEMBL document CHEMBL6109121, “Discovery of Novel Sulfonylurea NLRP3 Inflammasome Inhibitor for the Treatment of Multiple Inflammatory Diseases” (J Med Chem, 2025).
Calls of active or inactive are those of the source. The rule behind the calls is not given here.

Tests used:
[1] = Drug uptake in brain of male C57BL/6J mouse at 20 mg/kg, po administered as single dose and measured after 8 hrs by LC-MS/MS analysis; type: ADME, organism-based; conditions: in vivo
[2] = target: Nlrp3/Pycard (Mus musculus) (UniProt Q8R4B8+Q9EPB4); test: Inhibition of NLRP3-ASC protein-protein interaction in LPS/ATP stimulated male C57BL/6J mouse BMDM cells by co-immunoprecipitation based Western blot analysis; type: cell-based
Chain of Nlrp3/Pycard (Mus musculus) (Q8R4B8 whole entry, looked up): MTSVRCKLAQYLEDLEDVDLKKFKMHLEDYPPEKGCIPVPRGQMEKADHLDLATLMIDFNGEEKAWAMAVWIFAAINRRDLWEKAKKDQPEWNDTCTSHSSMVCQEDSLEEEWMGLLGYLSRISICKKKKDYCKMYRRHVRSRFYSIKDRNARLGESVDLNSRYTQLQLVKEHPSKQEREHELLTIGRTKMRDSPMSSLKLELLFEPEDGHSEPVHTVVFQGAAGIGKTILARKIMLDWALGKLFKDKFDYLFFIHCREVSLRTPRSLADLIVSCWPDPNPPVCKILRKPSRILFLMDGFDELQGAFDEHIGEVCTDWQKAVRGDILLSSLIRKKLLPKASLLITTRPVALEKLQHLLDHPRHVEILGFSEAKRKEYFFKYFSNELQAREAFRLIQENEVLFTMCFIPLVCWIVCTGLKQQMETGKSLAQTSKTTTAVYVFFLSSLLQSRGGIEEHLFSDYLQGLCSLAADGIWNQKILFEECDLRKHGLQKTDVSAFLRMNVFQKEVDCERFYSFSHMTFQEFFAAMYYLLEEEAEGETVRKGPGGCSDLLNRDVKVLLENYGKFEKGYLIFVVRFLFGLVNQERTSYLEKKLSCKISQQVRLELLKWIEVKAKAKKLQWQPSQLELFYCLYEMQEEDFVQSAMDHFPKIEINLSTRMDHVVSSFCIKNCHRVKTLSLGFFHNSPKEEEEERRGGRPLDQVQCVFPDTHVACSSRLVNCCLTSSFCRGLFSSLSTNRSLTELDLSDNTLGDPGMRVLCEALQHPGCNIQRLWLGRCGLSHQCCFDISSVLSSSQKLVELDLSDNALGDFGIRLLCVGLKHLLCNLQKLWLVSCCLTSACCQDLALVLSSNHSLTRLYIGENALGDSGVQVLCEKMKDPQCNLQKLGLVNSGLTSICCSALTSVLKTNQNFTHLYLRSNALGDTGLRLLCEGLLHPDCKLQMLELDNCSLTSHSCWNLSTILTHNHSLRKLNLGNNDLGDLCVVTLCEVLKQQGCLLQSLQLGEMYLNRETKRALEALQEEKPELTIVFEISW
Chain of Nlrp3/Pycard (Mus musculus) (Q9EPB4 whole entry, looked up): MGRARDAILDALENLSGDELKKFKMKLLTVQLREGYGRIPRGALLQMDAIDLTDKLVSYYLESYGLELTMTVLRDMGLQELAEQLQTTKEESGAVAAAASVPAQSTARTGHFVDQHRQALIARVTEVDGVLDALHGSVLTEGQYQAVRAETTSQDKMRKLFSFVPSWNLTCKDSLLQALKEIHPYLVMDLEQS

BMDM [3] = test: Inhibition of NLRC4 inflammasome activation in LPS/flagellin-stimulated male C57BL/6J mouse BMDM cells assessed as inhibition of IL-1beta secretion pretreated with LPS followed by compound addition for 4 hrs and measured after 2 hrs of Salmonella typhimurium flagellin addition by ELISA; type: cell-based; conditions: time 6.0 hrs
[4] = Half-life in male ICR (CD-1) mouse at 5 mg/kg, iv by LC-MS/MS analysis; type: ADME, organism-based; conditions: in vivo
Mus musculus [5] = test: (§1) Antidiabetic activity in HFD-fed STZ-induced diabetic kidney disease male C57BL/6J mouse model assessed as decrease in IL-1beta level in serum at 20 mg/kg fed with high fat diet for 4 weeks followed by STZ administration for 5 days and measured 6 weeks post compound administration via gavage by ELISA; type: functional, organism-based
Mus musculus [6] = test: Anti-colitis activity in DSS-induced acute ulcerative colitis male C57BL/6J mouse model assessed as decrease in disease activity index score at 0.2 to 5 mg/kg, po preadministered with DSS for 7 days followed by 3 days of drinking water and measured after 10 days of compound administration; type: functional, organism-based; conditions: dose 0.2-5 mg/kg, time 10.0 day
Mus musculus [7] = test: Anti-colitis activity in DSS-induced acute ulcerative colitis male C57BL/6J mouse model assessed as reduction in fecal bleeding at 0.2 to 5 mg/kg, po preadministered with DSS for 7 days followed by 3 days of drinking water and measured after 10 days of compound administration; type: functional, organism-based; conditions: dose 0.2-5 mg/kg, time 10.0 day
Mus musculus [8] = test: as §1, with “reduction” for “decrease”, “macrophage infiltration” for “IL-1beta level”, “kidney” for “serum”, “F4/80 immunostaining based analysis” for “ELISA”; type: functional, organism-based
Mus musculus [9] = test: Anti-colitis activity in DSS-induced acute ulcerative colitis male C57BL/6J mouse model assessed as reduction in body weight loss at 5 mg/kg, po preadministered with DSS for 7 days followed by 3 days of drinking water and measured after 10 days of compound administration; type: functional, organism-based; conditions: time 10.0 day
Mus musculus [10] = test: (§2) Antidiabetic activity in HFD-fed STZ-induced diabetic kidney disease male C57BL/6J mouse model assessed as reduction in LDL-C level in serum at 20 mg/kg fed with high fat diet for 4 weeks followed by STZ administration for 5 days and measured 6 weeks post compound administration via gavage; type: functional, organism-based
[11] = Inhibition of NLRP3 inflammasome activation in human THP-1 cells assessed as inhibition of IL-1beta release; type: cell-based
[12] = Drug uptake in heart of male C57BL/6J mouse at 20 mg/kg, po administered as single dose and measured after 8 hrs by LC-MS/MS analysis; type: ADME, organism-based; conditions: in vivo
Mus musculus [13] = test: (§3) Anti-inflammatory activity in LPS/ATP-induced acute peritonitis male C57BL/6J mouse model assessed as survival rate at 20 mg/kg, po preadministered with compound for 1 hrs followed by LPS addition for 2 hrs and further administered with ATP and measured 21 hrs post LPS administration relative to control; type: functional; conditions: time 22 hrs
Mus musculus [14] = test: Anti-colitis activity in DSS-induced acute ulcerative colitis male C57BL/6J mouse model assessed as improvement in stool consistency at 0.2 to 5 mg/kg, po preadministered with DSS for 7 days followed by 3 days of drinking water and measured after 10 days of compound administration; type: functional, organism-based; conditions: dose 0.2-5 mg/kg, time 10.0 day
[15] = AUClast in male ICR (CD-1) mouse at 20 mg/kg, po by LC-MS/MS analysis; type: ADME, organism-based; conditions: in vivo
BMDM [16] = test: Inhibition of AIM2 inflammasome activation in LPS/Poly dA:dT-stimulated male C57BL/6J mouse BMDM cells assessed as inhibition of IL-1beta secretion pretreated with LPS followed by compound addition for 4 hrs and measured after 4 hrs of Poly dA:dT addition by ELISA; type: cell-based; conditions: time 8.0 hrs
[17] = Inhibition of NLRP3 inflammasome activation in LPS/ATP-stimulated male C57BL/6J mouse BMDM cells assessed as inhibition of IL-1beta secretion […] for 4 hrs followed by compound administration for 30 mins and measured after 1 hrs of ATP addition by ELISA; type: cell-based
[18] = Half-life in male ICR (CD-1) mouse at 20 mg/kg, po by LC-MS/MS analysis; type: ADME, organism-based; conditions: in vivo
[19] = Tmax in male ICR (CD-1) mouse at 20 mg/kg, po by LC-MS/MS analysis; type: ADME, organism-based; conditions: in vivo
Mus musculus [20] = test: Effect on TNF-alpha level in serum of HFD-fed STZ-induced diabetic kidney disease male C57BL/6J mouse model at 20 mg/kg fed with high fat diet for 4 weeks followed by STZ administration for 5 days and measured 6 weeks post compound administration via gavage by ELISA; type: functional, organism-based
[21] = target: NACHT, LRR and PYD domains-containing protein 3 (Mus musculus) (UniProt Q8R4B8); test: In vivo inhibition of NLRP3 inflammasome activation in DSS-induced acute ulcerative colitis male C57BL/6J mouse model assessed as reduction in IL-1beta level in colon at 0.2 to 5 mg/kg, po preadministered with DSS for 7 days followed by 3 days of drinking water and measured after 10 days of compound administration by ELISA; type: functional, organism-based; conditions: dose 0.2-5 mg/kg, time 10.0 day
Chain of NACHT, LRR and PYD domains-containing protein 3 (Mus musculus) (Q8R4B8 whole entry, the tested form may be a part): as the sequence (Q8R4B8 whole entry, looked up) above

Mus musculus [22] = test: Effect on TNF-alpha level in serum of LPS/ATP-induced acute peritonitis male C57BL/6J mouse model at 1 to 20 mg/kg, po preadministered with compound for 1 hrs followed by LPS addition for 2 hrs and measured 12 hrs post ATP administration by ELISA; type: functional, organism-based; conditions: dose 1-20 mg/kg, time 13.0 hrs
BMDM [23] = test: Inhibition of NLRP3 inflammasome activation at initiation phase in LPS/ATP-stimulated male C57BL/6J mouse BMDM cells assessed as inhibition of TNF-alpha secretion […] for 4 hrs followed by compound administration for 30 mins and measured after 1 hrs of ATP addition by ELISA; type: cell-based; conditions: time 1.5 hrs
[24] = target: NACHT, LRR and PYD domains-containing protein 3 (Mus musculus) (UniProt Q8R4B8); test: In vivo inhibition of NLRP3 inflammasome activation in LPS/ATP-induced acute peritonitis male C57BL/6J mouse model assessed as reduction in IL-1beta level in serum preadministered orally with compound for 1 hrs followed by LPS addition for 2 hrs and measured 12 hrs post ATP administration by ELISA; type: functional, organism-based; conditions: dose 1-20 mg/kg, route po, time 13.0 hrs
[25] = Oral bioavailability in male ICR (CD-1) mouse at 20 mg/kg by LC-MS/MS analysis; type: ADME, organism-based; conditions: in vivo
Mus musculus [26] = test: as §2, with “urine albumin-to-creatinine ratio” for “LDL-C level in serum”; type: functional, organism-based
Mus musculus [27] = test: as §3, with “1” for “20”; type: functional; conditions: time 22 hrs
Mus musculus [28] = test: Anti-colitis activity in DSS-induced acute ulcerative colitis male C57BL/6J mouse model assessed as increase in colon length at 0.2 to 5 mg/kg, po preadministered with DSS for 7 days followed by 3 days of drinking water and measured after 10 days of compound administration; type: functional, organism-based; conditions: dose 0.2-5 mg/kg, time 10.0 day
Mus musculus [29] = test: Antidiabetic activity in HFD-fed STZ-induced diabetic kidney disease male C57BL/6J mouse model assessed as improvement of glucose tolerance at 20 mg/kg fed with high fat diet for 4 weeks followed by STZ administration for 5 days further administered with compound via gavage for 6 weeks and measured after 120 mins of glucose administration by OGTT; type: functional, organism-based; conditions: time 60600.0 min

**Q.** Which Drug uptake [1] does the source give for CN1CCC(N(C)S(=O)(=O)NC(=O)Nc2c3c(cc4c2CCC4)CCC3)CC1 here?
**A.** The Drug uptake was “Not_active”.

**Q.** And the inhibition [2]?
**A.** Its inhibition is “Active”.

**Q.** What about the inhibition (BMDM [3]) of the same molecule?
**A.** The inhibition was “inactive”.

**Q.** What about the half-life [4] of the same molecule?
**A.** The half-life was 3.63 h.

**Q.** What about the Activity (Mus musculus [5]) of the same molecule?
**A.** Its Activity is “Active”.

**Q.** And the Activity (Mus musculus [6])?
**A.** The Activity was “Active”.

**Q.** What about the Activity (Mus musculus [7]) of the same molecule?
**A.** The Activity was “Active”.

**Q.** And the Activity (Mus musculus [8])?
**A.** The Activity was “Active”.

**Q.** What about the Activity (Mus musculus [9]) of the same molecule?
**A.** Its Activity is “Active; Significant Difference Not Observed”.

**Q.** What about the Activity (Mus musculus [10]) of the same molecule?
**A.** The Activity was “Active”.

**Q.** And the IC50 [11]?
**A.** The IC50 was 23 nM.

**Q.** And the Drug uptake [12]?
**A.** The Drug uptake was “Active”.

**Q.** And the survival at 20 mg/kg (Mus musculus [13])?
**A.** The survival at 20 mg/kg was 100%.

**Q.** What about the Activity (Mus musculus [14]) of the same molecule?
**A.** The Activity was “Active”.

**Q.** What about the AUC(0-t) [15] of the same molecule?
**A.** The AUC(0-t) was 57900 ng·h/mL.

**Q.** What about the inhibition (BMDM [16]) of the same molecule?
**A.** Its inhibition is “inactive”.

**Q.** And the IC50 [17]?
**A.** Its IC50 is 106 nM.

**Q.** And the half-life [18]?
**A.** The half-life was 2.7 h.

**Q.** What about the Tmax [19] of the same molecule?
**A.** The Tmax was 0.33 h.

**Q.** And the Activity (Mus musculus [20])?
**A.** Its Activity is “inactive”.

**Q.** And the inhibition [21]?
**A.** Its inhibition is “Active”.

**Q.** And the Activity (Mus musculus [22])?
**A.** Its Activity is “inactive”.

**Q.** What about the inhibition (BMDM [23]) of the same molecule?
**A.** The inhibition was “inactive”.

**Q.** What about the inhibition [24] of the same molecule?
**A.** The inhibition was “Dose-dependent-effect”.

**Q.** And the bioavailability [25]?
**A.** Its bioavailability is 99.6%.

**Q.** And the Activity (Mus musculus [26])?
**A.** Its Activity is “Active”.

**Q.** What about the survival at 1 mg/kg (Mus musculus [27]) of the same molecule?
**A.** The survival at 1 mg/kg was 75%.

**Q.** What about the Activity (Mus musculus [28]) of the same molecule?
**A.** The Activity was “inactive”.

**Q.** What about the Activity (Mus musculus [29]) of the same molecule?
**A.** The Activity was “inactive”.
